Reference: ChEMBL document CHEMBL1121748, “Antimycotic imidazoles. 5. Synthesis and antimycotic properties of 1-[[2-aryl-4-(arylalkyl)-1,3-dioxolan-2-yl]methyl]-1H-imidazoles” (1981)

Tests used:
[1] = test system: Aspergillus fumigatus; test: Antifungal activity against Aspergillus fumigatus; assay type: functional
[2] = test system: Candida tropicalis; test: Antifungal activity against Candida tropicalis; assay type: functional
[3] = test system: Erysipelothrix rhusiopathiae; test: Antibacterial activity against Erysipelothrix insidiosa; assay type: functional
[4] = test system: Microsporum canis; test: Antifungal activity against Microsporum canis; assay type: functional
[5] = test system: Mucor; test: Antifungal activity against Mucor species; assay type: functional
[6] = test system: Phialophora verrucosa; test: Antifungal activity against Phialophora verrucosa; assay type: functional
[7] = test system: Saprolegnia; test: Antifungal activity against Saprolegnia species; assay type: functional
[8] = test system: Sporothrix schenckii; test: Antifungal activity against Sporothrix schenck ii; assay type: functional
[9] = test system: Streptococcus pyogenes; test: Antibacterial activity against Streptococcus pyogenes; assay type: functional
[10] = test system: Staphylococcus haemolyticus; test: Antibacterial against Staphylococcus hemolyticus; assay type: functional
[11] = test system: Trichophyton benhamiae; test: Antifungal activity against Trichophyton mentagrophytes; assay type: functional, trychophyton mentagrophytes
[12] = Ratio of animals cured to that of animals infected, tested in vivo for antifungal activity against cutaneous candidosis in guinea pig; 1/2; assay type: functional
[13] = test system: Trichophyton rubrum; test: Antifungal activity against Trichophyton rubrum; assay type: functional
[14] = test system: Cryptococcus neoformans; test: Antifungal activity against Cryptococcus neoformans; assay type: functional
[15] = test system: Candida albicans; test: Antifungal activity against Candida albicans; assay type: functional
[16] = Ratio of animals cured to that of animals infected, tested in vivo for antifungal activity against vaginal candidosis in rat; 2/2
[17] = Ratio of animals cured to that of animals […], Tested in vivo for antifungal activity against vaginal candidosis in rat; 0/2; assay type: functional
[18] = Ratio of animals cured to that of animals infected, tested in vivo for antifungal activity against cutaneous candidosis in guinea pig; 2/2; assay type: functional; also: test concentration or dose not given here
[19] = Ratio of animals cured to that of animals infected, tested in vivo for antifungal activity against vaginal candidosis in rat; 0/2; also: test concentration or dose not given here
[20] = Ratio of animals cured to that of animals infected, tested in vivo for antifungal activity against cutaneous candidosis in guinea pig; 0/2; assay type: functional; also: test concentration or dose not given here
[21] = Ratio of animals cured to that of animals […], Tested in vivo for antifungal activity against vaginal candidosis in rat; 1/2; assay type: functional

Structure (SMILES) | Inhibition [1] [µg/mL] | Inhibition [2] [µg/mL] | Inhibition [3] [µg/mL] | Inhibition [4] [µg/mL] | Inhibition [5] [µg/mL] | Inhibition [6] [µg/mL] | Inhibition [7] [µg/mL] | Inhibition [8] [µg/mL] | Inhibition [9] [µg/mL] | Inhibition [10] [µg/mL] | Inhibition [11] [µg/mL] | Inhibition [13] [µg/mL] | Inhibition [14] [µg/mL] | Inhibition [15] [µg/mL] | Ratio [17] | also measured
Clc1ccc(C2COC(Cn3ccnc3)(c3ccc(Cl)cc3Cl)O2)cc1 (centres undefined) | <1 | 10 | 1 | <1 | 10 | 100 | 100 | 10 | 1 | 10 | <1 | <1 | <1 | 100 | – | Ratio [12]: 1
Clc1ccc(C2COC(Cn3ccnc3)(c3ccc(Cl)cc3Cl)O2)c(Cl)c1 (centres undefined) | <1 | >100 | <1 | 10 | 10 | 100 | 100 | 10 | <1 | 10 | <1 | <1 | <1 | >100 | – | Ratio [16]: 2
Cc1ccc(C2COC(Cn3ccnc3)(c3ccc(Cl)cc3)O2)cc1 (centres undefined) | <1 | >100 | <1 | <1 | 100 | 100 | 100 | 10 | <1 | 100 | <1 | <1 | <1 | 100 | 0 | –
Fc1ccc(C2COC(Cn3ccnc3)(c3ccc(Cl)cc3)O2)cc1 (centres undefined) | <1 | 100 | 100 | <1 | 10 | 100 | 100 | 10 | 10 | >100 | <1 | <1 | 10 | 100 | 0 | Ratio [18]: 1
Clc1ccc(C2(Cn3ccnc3)OCC(Cc3ccc(-c4ccccc4)cc3)O2)c(Cl)c1 (centres undefined) | 10 | >100 | 1 | 10 | >100 | >100 | 100 | 100 | 1 | 10 | <1 | <1 | 100 | >100 | 0 | –
Clc1ccc(CC2COC(Cn3ccnc3)(c3ccc(Cl)cc3Cl)O2)cc1 (centres undefined) | 10 | 10 | <1 | <1 | 10 | 100 | 100 | 10 | 100 | 10 | <1 | <1 | 1 | 10 | – | Ratio [18]: 2; Ratio [19]: 0
Clc1ccc(C2(Cn3ccnc3)OCC(c3ccccc3)O2)c(Cl)c1 (centres undefined) | <1 | >100 | 10 | <1 | 100 | 100 | 100 | 10 | 10 | >100 | <1 | <1 | 100 | 100 | 0 | –
COc1ccc(CC2COC(Cn3ccnc3)(c3ccc(Cl)cc3Cl)O2)cc1 (centres undefined) | – | – | – | <1 | – | 10 | 10 | – | <1 | 100 | <1 | – | – | – | 0 | –
Clc1ccc(C2(Cn3ccnc3)OCC(c3ccc(Br)cc3)O2)cc1 (centres undefined) | <1 | 10 | <1 | <1 | 10 | 100 | <1 | 10 | <1 | 10 | <1 | <1 | <1 | 10 | – | Ratio [20]: 0; Ratio [16]: 2
Brc1ccc(C2COC(Cn3ccnc3)(c3ccc(Br)cc3)O2)cc1 (centres undefined) | <1 | 100 | <1 | <1 | 10 | 100 | 100 | 10 | <1 | 10 | <1 | <1 | <1 | >100 | – | Ratio [20]: 0; Ratio [19]: 0
Cc1ccc(CC2COC(Cn3ccnc3)(c3ccc(Cl)cc3Cl)O2)cc1 (centres undefined) | 10 | >100 | <1 | <1 | 10 | 100 | 10 | 10 | <1 | <1 | <1 | <1 | <1 | 10 | 0 | –
Fc1ccc(CC2COC(Cn3ccnc3)(c3ccc(Cl)cc3Cl)O2)cc1 (centres undefined) | 10 | 100 | <1 | <1 | <1 | 100 | 10 | 10 | 10 | 10 | <1 | <1 | 10 | 100 | 0 | –
Clc1ccc(C2(Cn3ccnc3)OCC(CCc3ccc(-c4ccccc4)cc3)O2)c(Cl)c1 (centres undefined) | 10 | >100 | <1 | <1 | >100 | >100 | 10 | 10 | <1 | 100 | <1 | <1 | 10 | >100 | 0 | –
Clc1ccc(C2(Cn3ccnc3)OCC(Cc3ccccc3)O2)c(Cl)c1 (centres undefined) | <1 | 10 | <1 | <1 | 10 | 100 | 10 | 10 | 10 | 10 | <1 | <1 | <1 | 100 | 0 | Ratio [18]: 2
Cc1ccc(C2(Cn3ccnc3)OCC(c3ccccc3Cl)O2)cc1 (centres undefined) | 100 | >100 | 1 | 10 | 100 | 100 | 100 | 10 | <1 | 100 | <1 | <1 | 100 | 100 | – | Ratio [21]: 0.5; Ratio [20]: 0
Clc1ccccc1C1COC(Cn2ccnc2)(c2ccc(Br)cc2)O1 (centres undefined) | 100 | >100 | <1 | <1 | 10 | 100 | 100 | 10 | 10 | 100 | <1 | <1 | <1 | 100 | – | Ratio [20]: 0; Ratio [19]: 0
